According to patent US12558428B2, “Heterobifunctional compounds and their use in treating disease” (Halda Therapeutics OpCo, Inc., priority 2024, dated 2026):
Where two headings read alike, the source gives them in different places.

Assays:
Type in all cases: cell-based
[1] = system: MCF7 cells (ATCC #HTB-22); test: Cellular growth inhibition assay, MCF7 cells purchased from ATCC; details: Table 8-A, MCF7 cells purchased from ATCC, six days, CellTiter-Glo, read-out: GI50
In short: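 MCF7 cells in RPMI 1640 with 10% FBS and 0.2 U/ml insulin, seeded at 1,500 cells/well (ATCC) or 225 cells/well (ECACC). Compounds added 24 h later, then 6 days at 37° C. Viability by CellTiter-Glo 2.0 luminescence. GI50 from four-parameter fit.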

[2] = system: T-Rex 293 cells having increased expression of estrogen receptor alpha protein; test: Cellular growth inhibition assay, T-Rex 293 cells, (+) doxycycline; details: Table 7-A, T-Rex 293 cells with doxycycline (increased ERα expression), 72 hours, CellTiter-Glo, read-out: (+) Dox GI50
In short: (§1)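 ERα overexpression was switched on by 3 ng/mL doxycycline in a stably transfected T-Rex 293 clone, while uninduced cells served as the comparison line. Proliferation over 72 h of compound treatment was assessed by ATP luminescence, and GI50 values came from four-parameter curves.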

[3] = system: T-Rex 293 cells lacking increased expression of estrogen receptor alpha protein; test: Cellular growth inhibition assay, T-Rex 293 cells, (−) doxycycline; details: Table 7-A, T-Rex 293 cells without doxycycline (lacking increased ERα expression), 72 hours, CellTiter-Glo, read-out: (−) Dox GI50
In short: as §1

Row | GI50 ([1]; Homo sapiens, MCF7, 144 h) [nM] | GI50 [1] [nM] | Structure (SMILES) | GI50 ([2]; T-REx-293, 72 h) [nM] | GI50 ([3]; T-REx-293, 72 h) [nM] | GI50 [2] [nM] | GI50 [3] [nM]
1 | < 50 |  | Cc1sc2c(c1C)C(c1ccc(N3CCC(O)(CN4CCN(c5ccc(C6=C(c7ccc(F)cc7)CCCc7cc(C(=O)O)ccc76)cc5)CC4)CC3)cc1)=N[C@@H](C)c1nnc(C)n1-2 [IV-37] | < 50 | 500 to 2500 |  | 
2 | < 50 |  | Cc1sc2c(c1C)C(c1ccc(N3CC(N4CCN(CCOc5ccc([C@@H]6c7ccc(O)cc7CC[C@@H]6c6ccccc6)cc5)CC4)C3)cc1)=N[C@@H](Cc1ncco1)c1nnc(C)n1-2 [III-113] | < 50 | 50 to 500 |  | 
3 |  | 500 to 2500 | Cc1sc2c(c1C)C(c1ccc(N3CCC(CN4CCN(c5ccc([C@H]6c7ccc(O)cc7CC[C@H]6c6ccccc6)cc5)CC4)CC3)cc1)=N[C@H](Cc1ncco1)c1nnc(C)n1-2 [III-72] |  |  | 500 to 2500 | 500 to 2500
4 | 50 to 500 |  | CC1=C(c2c(F)cc(F)cc2F)C(c2ccc(OCCN3CCC4(CC3)CCN(c3ccc(C5=N[C@@H](C)c6nnc(C)n6-c6sc(C)c(C)c65)cc3)C4)cc2)Oc2ccc(O)cc21 (stereo partly drawn) [V-16] | 500 to 2500 | 500 to 2500 |  | 
5 | < 50 |  | Cc1sc2c(c1C)C(c1ccc(N3CCC(O)(CN4CCN(c5cc(F)c([C@@H]6c7ccc(O)cc7CC[C@@H]6c6ccccc6)cc5F)CC4)CC3)cc1)=N[C@@H](C)c1nnc(C)n1-2 [III-246] | < 50 | 500 to 2500 |  | 
6 | 50 to 500 |  | Cc1cc(N2CCN(CC3(O)CCN(c4ccc(C5=N[C@@H](C)c6nnc(C)n6-c6sc(C)c(C)c65)cc4)CC3)CC2)c(F)cc1[C@H]1c2ccc(O)cc2CC[C@H]1c1ccccc1 [III-285] | 50 to 500 | 50 to 500 |  | 
7 | < 50 |  | Cc1sc2c(c1C)C(c1ccc(N3CC4(CC(CN5CCN(c6ccc(C7=C(c8ccccc8Cl)CCCc8cc(C(=O)O)ccc87)c(F)c6)CC5)C4)C3)cc1)=N[C@@H](C)c1nnc(C)n1-2 [IV-58] | < 50 | 500 to 2500 |  | 
8 | 500 to 2500 |  | Cc1sc2c(c1C)C(c1ccc(C#CC3CC4(CCN(c5ccc([C@@H]6c7ccc(O)cc7CC[C@@H]6c6ccccc6)cc5)CC4)C3)cc1)=N[C@@H](C)c1nnc(C)n1-2 [I-47] | 50 to 500 | > 2500 |  | 
9 | 50 to 500 |  | Cc1sc2c(c1C)C(c1ccc(N3CCC4(CCN(c5ccc([C@@H]6c7ccc(O)cc7CC[C@@H]6c6ccccc6)cc5)CC4)C3)cc1)=N[C@@H](C)c1nnc(C)n1-2 [III-120] | > 2500 | 500 to 2500 |  | 
10 | < 50 |  | CC1=C(c2c(F)cc(F)cc2F)C(c2ccc(N3CCN(CC4(O)CCN(c5ccc(C6=N[C@@H](C)c7nnc(C)n7-c7sc(C)c(C)c76)cc5)CC4)CC3)cc2)Oc2ccc(O)cc21 (stereo partly drawn) [V-28] | < 50 | 50 to 500 |  | 
11 | < 50 |  | Cc1sc2c(c1C)C(c1ccc(N3CC4(CN(CC5CCN(c6ccc([C@@H]7c8ccc(O)cc8CC[C@@H]7c7ccccc7)cc6)CC5)C4)C3)cc1)=N[C@@H](C)c1nnc(C)n1-2 [III-97] | < 50 | 500 to 2500 |  | 
12 | 50 to 500 |  | Cc1sc2c(c1C)C(c1ccc(N3CCC(CN4CCC(c5ccc(C6=C(c7ccc(Cl)cc7Cl)CCCc7cc(C(=O)O)ccc76)cc5)CC4)CC3)cc1)=N[C@@H](C)c1nnc(C)n1-2 [IV-6] | 50 to 500 | 500 to 2500 |  | 
13 | 50 to 500 |  | Cc1sc2c(c1C)C(c1ccc(N3CCC(N4CC(Oc5ccc([C@@H]6c7ccc(O)cc7CC[C@@H]6c6ccccc6)cc5)C4)CC3)cc1)=N[C@@H](C)c1nnc(C)n1-2 [III-7] | 50 to 500 | 500 to 2500 |  | 
14 | 500 to 2500 |  | Cc1sc2c(c1C)C(c1ccc(N3CCN(CCOc4ccc([C@H]5c6ccc(O)cc6CC[C@H]5c5ccccc5)cc4)CC3)cc1)=N[C@@H](C)c1nnc(C)n1-2 [III-17] | 500 to 2500 | 500 to 2500 |  | 
15 | 500 to 2500 |  | Cc1sc2c(c1C)C(c1ccc(N3CCC(O)(CN4CCN(c5ccc([C@@H]6c7ccc(O)cc7CC[C@@H]6c6ccccc6)nn5)CC4)CC3)cc1)=N[C@H](Cc1ncco1)c1nnc(C)n1-2 [III-223] | 500 to 2500 | 500 to 2500 |  | 
16 | 50 to 500 |  | COc1cc(N2CCN(CC3(O)CCN(c4cc(F)c(C5=N[C@@H](C)c6nnc(C)n6-c6sc(C)c(C)c65)cc4F)CC3)CC2)c(F)cc1[C@H]1c2ccc(O)cc2CC[C@H]1c1ccccc1 [III-342, 1-(2,5-difluoro-4-((6S)-2,3,6,9-tetramethyl-6H-thieno[3,2-f][1,2,4]triazolo[4,3-a][1,4]diazepin-4-yl)phenyl)-4-((4-(2-fluoro-4-((1R,2R)-6-hydroxy-2-phenyl-1,2,3,4-tetrahydronaphthalen-1-yl)-5-methoxyphenyl)piperazin-1-yl)methyl)piperidin-4-ol] | 50 to 500 | 50 to 500 |  | 

Row | GI50 ([1]; Homo sapiens, MCF7, 144 h) [nM] | GI50 [1] [nM] | Structure (SMILES) | GI50 ([2]; T-REx-293, 72 h) [nM] | GI50 ([3]; T-REx-293, 72 h) [nM] | GI50 [2] [nM] | GI50 [3] [nM]
17 | 50 to 500 |  | Cc1sc2c(c1C)C(c1ccc(NC3CCCN(CCOc4ccc([C@@H]5c6ccc(O)cc6CC[C@@H]5c5ccccc5)cc4)CC3)cc1)=NC(Cc1ncco1)c1nnc(C)n1-2 (stereo partly drawn) [III-34] | < 50 | 50 to 500 |  | 
18 | < 50 |  | Cc1sc2c(c1C)C(c1ccc(N3CC(CC4(O)CCN(c5ccc([C@@H]6c7ccc(O)cc7CC[C@@H]6c6ccccc6)cc5)CC4)C3)cc1)=N[C@@H](Cc1ncco1)c1nnc(C)n1-2 [III-178] | < 50 | 50 to 500 |  | 
19 | 50 to 500 |  | COc1cc([C@H]2c3ccc(O)cc3CC[C@H]2c2ccc(F)cc2)ccc1N1CCN(CC2(O)CCN(c3ccc(C4=N[C@@H](C)c5nnc(C)n5-c5sc(C)c(C)c54)cc3)CC2)CC1 [III-254] | < 50 | 500 to 2500 |  | 
20 | < 50 |  | Cc1sc2c(c1C)C(c1ccc(N3CCC(CN4CCN(c5ccc(C6=C(c7ccccc7Cl)CCCc7cc(C(=O)O)ccc76)c(F)c5)CC4)CC3)cc1)=N[C@@H](C)c1nnc(C)n1-2 [IV-48] | < 50 | 500 to 2500 |  | 
21 | < 50 |  | Cc1sc2c(c1C)C(c1ccc(N3CCC4(CCN(CCOc5ccc([C@@H]6c7ccc(O)cc7CC[C@@H]6c6ccccc6)cc5)C4)CC3)cc1)=NC(Cc1ncco1)c1nnc(C)n1-2 (stereo partly drawn) [III-36] | < 50 | 50 to 500 |  | 
22 | 500 to 2500 |  | Cc1sc2c(c1C)C(c1ccc(N3CC4(CCC(CN5CCC(c6ccc([C@H]7c8ccc(O)cc8CC[C@H]7c7ccc(F)cc7)cc6)CC5)CC4)C3)cc1)=N[C@@H](C)c1nnc(C)n1-2 [III-252] | 50 to 500 | 500 to 2500 |  | 
23 | 50 to 500 |  | Cc1sc2c(c1C)C(c1ccc(N3CC(CC4CCN(CC5CN(c6ccc([C@@H]7c8ccc(O)cc8CC[C@@H]7c7ccccc7)cc6)C5)CC4)C3)cc1)=N[C@@H](C)c1nnc(C)n1-2 [III-131] | < 50 | 500 to 2500 |  | 
24 | < 50 |  | Cc1sc2c(c1C)C(c1ccc(N3CC4(C3)CC(O)(CN3CCN(c5cc(F)c([C@@H]6c7ccc(O)cc7CC[C@@H]6c6ccc(F)cc6)c(F)c5)CC3)C4)cc1)=N[C@@H](C)c1nnc(C)n1-2 [III-279] | < 50 | 500 to 2500 |  | 
25 | 50 to 500 |  | CC1=C(c2c(F)cc(F)cc2F)[C@H](c2ccc(C3CCN(CC4(O)CCN(c5ccc(C6=N[C@@H](C)c7nnc(C)n7-c7sc(C)c(C)c76)cc5)CC4)CC3)cc2)Oc2ccc(O)cc21 [V-31] | < 50 | 50 to 500 |  | 
26 | 50 to 500 |  | Cc1sc2c(c1C)C(c1ccc(C3CN(CC4CCN(c5ccc([C@@H]6c7ccc(O)cc7CC[C@@H]6c6ccccc6)cc5)CC4)C3)cc1)=N[C@@H](C)c1nnc(C)n1-2 [III-141] | 50 to 500 | 500 to 2500 |  | 
27 | 50 to 500 |  | Cc1sc2c(c1C)C(c1ccc(C3CN(CC4(O)CCN(C(=O)C5CN(c6ccc([C@@H]7c8ccc(O)cc8CC[C@@H]7c7ccccc7)cc6)C5)CC4)C3)cc1)=N[C@@H](C)c1nnc(C)n1-2 [III-171] | < 50 | 50 to 500 |  | 
28 | < 50 |  | Cc1sc2c(c1C)C(c1ccc(N3CCC(O)(CC4CCN(c5ccc([C@@H]6c7ccc(B(O)O)cc7CC[C@@H]6c6ccccc6)cc5)CC4)CC3)cc1)=N[C@@H](C)c1nnc(C)n1-2 [III-264] | < 50 | 500 to 2500 |  | 
29 | > 2500 |  | Cc1sc2c(c1C)C(c1ccc(N3CCN(CCC4CN(c5ccc([C@@H]6c7ccc(O)cc7CC[C@@H]6c6ccccc6)cc5)C4)CC3)cc1)=N[C@@H](C)c1nnc(C)n1-2 [III-80] | 50 to 500 | 500 to 2500 |  | 
30 | 50 to 500 |  | Cc1sc2c(c1C)C(c1ccc(N3CC(CN4CCC(COc5ccc([C@@H]6c7ccc(O)cc7CC[C@@H]6c6ccccc6)cc5)CC4)C3)cc1)=N[C@@H](C)c1nnc(C)n1-2 [III-106] | < 50 | 500 to 2500 |  | 
31 | < 50 |  | Cc1sc2c(c1C)C(c1ccc(N3CCC4(CC3)CN(CC3CN(c5ccc([C@@H]6c7ccc(O)cc7CC[C@@H]6c6ccccc6)cc5)C3)C4)cc1)=N[C@@H](C)c1nnc(C)n1-2 [III-108] | < 50 | 50 to 500 |  | 

Row | Structure (SMILES) | GI50 ([1]; Homo sapiens, MCF7, 144 h) [nM] | GI50 [1] [nM] | GI50 ([2]; T-REx-293, 72 h) [nM] | GI50 ([3]; T-REx-293, 72 h) [nM] | GI50 [2] [nM] | GI50 [3] [nM]
32 | Cc1sc2c(c1C)C(c1ccc(N[C@H]3C[C@H]4CC[C@@H](C3)N4CCOc3ccc([C@@H]4c5ccc(O)cc5CC[C@@H]4c4ccccc4)cc3)cc1)=NC(Cc1ncco1)c1nnc(C)n1-2 (stereo partly drawn) [III-59] | 50 to 500 |  | < 50 | 50 to 500 |  | 
